In patent US20240000872A1, “NOVEL BACTERIOPHAGE THAT LYSES ACINETOBACTER GENUS BACTERIA HAVING RESISTANCE TO ANTIBIOTICS” (priority 2020, published 2024):

Test system: Acinetobacter baumannii strains
Test: Antibiotic susceptibility test (CLSI disk diffusion test method, read per CLSI 2016); note: key: ‘S’ means susceptible; ‘I’ means intermediate; ‘R’ means resistant
Format: cell-based

With `CN(C)c1cc(NC(=O)CNC(C)(C)C)c(O)c2c1C[C@H]1C[C@H]3[C@H](N(C)C)C(O)=C(C(N)=O)C(=O)[C@@]3(O)C(O)=C1C2=O` [Tigecycline, tigecycline] the antibiotic susceptibility class (host strain YMC14/01/C29) was “S”, the antibiotic susceptibility class (host strain YMC14/01/IP122) was “S” and the antibiotic susceptibility class (host strain YMC14/01/L8) was “S”. For the same molecule, the antibiotic susceptibility class (host strain YMC14/01/P31) was “S”, the antibiotic susceptibility class (host strain YMC14/01/P117) was “S” and the antibiotic susceptibility class (host strain YMC14/01/P224) was “I”. For the same molecule, the antibiotic susceptibility class (host strain YMC14/01/P727) was “R”, the antibiotic susceptibility class (host strain YMC14/01/P728) was “S” and the antibiotic susceptibility class (host strain YMC14/01/R130) was “S”. For the same molecule, the antibiotic susceptibility class (host strain YMC14/01/R160) was “S”, the antibiotic susceptibility class (host strain YMC14/01/R198) was “S” and the antibiotic susceptibility class (host strain YMC14/01/R257) was “S”. The antibiotic susceptibility class (host strain YMC14/01/R270) was “S”, the antibiotic susceptibility class (host strain YMC14/01/R324) was “S” and the antibiotic susceptibility class (host strain YMC14/01/R443) was “S”. For the same molecule, the antibiotic susceptibility class (host strain YMC14/01/R451) was “S”, the antibiotic susceptibility class (host strain YMC14/01/R560) was “R” and the antibiotic susceptibility class (host strain YMC14/01/R617) was “S”. The antibiotic susceptibility class (host strain YMC14/01/R671) was “S”, the antibiotic susceptibility class (host strain YMC14/01/R732) was “R” and the antibiotic susceptibility class (host strain YMC14/01/R767) was “S”. The antibiotic susceptibility class (host strain YMC14/01/R904) was “S”, the antibiotic susceptibility class (host strain YMC14/01/R905) was “S” and the antibiotic susceptibility class (host strain YMC14/01/R921) was “S”. For the same molecule, the antibiotic susceptibility class (host strain YMC14/01/R941) was “R”, the antibiotic susceptibility class (host strain YMC14/01/R958) was “R” and the antibiotic susceptibility class (host strain YMC14/01/R1006) was “S”. For the same molecule, the antibiotic susceptibility class (host strain YMC14/01/R1199) was “S”, the antibiotic susceptibility class (host strain YMC14/01/R1659) was “S” and the antibiotic susceptibility class (host strain YMC14/01/R1722) was “S”. For the same molecule, the antibiotic susceptibility class (host strain YMC14/01/R1752) was “S”, the antibiotic susceptibility class (host strain YMC14/01/R2429) was “S” and the antibiotic susceptibility class (host strain YMC14/01/R2572) was “I”. For the same molecule, the antibiotic susceptibility class (host strain YMC14/01/R2855) was “S”, the antibiotic susceptibility class (host strain YMC14/01/R2945) was “S” and the antibiotic susceptibility class (host strain YMC14/01/R3007) was “S”. The antibiotic susceptibility class (host strain YMC14/01/R3129) was “I”, the antibiotic susceptibility class (host strain YMC14/01/R3317) was “S” and the antibiotic susceptibility class (host strain YMC14/01/R3474) was “S”. The antibiotic susceptibility class (host strain YMC14/01/R3574) was “S”, the antibiotic susceptibility class (host strain YMC14/01/U313) was “R” and the antibiotic susceptibility class (host strain YMC14/01/U318) was “S”. The antibiotic susceptibility class (host strain YMC14/02/L18) was “S”, the antibiotic susceptibility class (host strain YMC14/02/P47) was “I” and the antibiotic susceptibility class (host strain YMC14/02/R1860) was “I”. For the same molecule, the antibiotic susceptibility class (host strain YMC14/02/R2417) was “S”, the antibiotic susceptibility class (host strain YMC14/02/R2599) was “S” and the antibiotic susceptibility class (host strain YMC14/02/R2668) was “R”. The antibiotic susceptibility class (host strain YMC14/02/R2758) was “R”, the antibiotic susceptibility class (host strain YMC14/02/R2781) was “S” and the antibiotic susceptibility class (host strain YMC14/02/R3106) was “S”. For the same molecule, the antibiotic susceptibility class (host strain YMC14/02/R3419) was “R”, the antibiotic susceptibility class (host strain YMC14/02/U1607) was “S” and the antibiotic susceptibility class (host strain YMC14/03/L9) was “S”. For the same molecule, the antibiotic susceptibility class (host strain YMC14/03/P471) was “S”, the antibiotic susceptibility class (host strain YMC14/03/R122) was “R” and the antibiotic susceptibility class (host strain YMC14/03/R217) was “S”. For the same molecule, the antibiotic susceptibility class (host strain YMC14/03/R380) was “R”, the antibiotic susceptibility class (host strain YMC14/03/R618) was “S” and the antibiotic susceptibility class (host strain YMC14/03/R2144) was “S”. For the same molecule, the antibiotic susceptibility class (host strain YMC14/03/U4616) was “S”, the antibiotic susceptibility class (host strain YMC14/04/R1078) was “S” and the antibiotic susceptibility class (host strain YMC14/04/R1080) was “S”. For the same molecule, the “antibiotic susceptibility S/I/R” value (host strain YMC14/06/R2359) was “S”, the “susceptibility category (S/I/R)” value (host strain YMC14/06/R2359) was “S” and the “antibiotic susceptibility S/I/R” value (host strain YMC14/08/R1169) was “R”. The “susceptibility category (S/I/R)” value (host strain YMC14/08/R1169) was “R”, the “antibiotic susceptibility S/I/R” value (host strain YMC14/08/T90) was “S” and the “susceptibility category (S/I/R)” value (host strain YMC14/08/T90) was “S”. The “susceptibility category (S/I/R)” value (host strain YMC15/02/R436) was “I”, the “antibiotic susceptibility S/I/R” value (host strain YMC15/02/T28) was “S” and the “susceptibility category (S/I/R)” value (host strain YMC15/02/T28) was “S”. For the same molecule, the “antibiotic susceptibility S/I/R” value (host strain YMC15/03/R1604) was “S”, the “susceptibility category (S/I/R)” value (host strain YMC15/03/R1604) was “S” and the “susceptibility category (S/I/R)” value (host strain YMC15/09/R1869) was “I”. For the same molecule, the “antibiotic susceptibility S/I/R” value (host strain YMC16/01/P11) was “S”, the “susceptibility category (S/I/R)” value (host strain YMC16/01/P11) was “S” and the “antibiotic susceptibility S/I/R” value (host strain YMC16/01/R123) was “S”. The “susceptibility category (S/I/R)” value (host strain YMC16/01/R123) was “S”, the “antibiotic susceptibility S/I/R” value (host strain YMC16/01/R198) was “S” and the “susceptibility category (S/I/R)” value (host strain YMC16/01/R198) was “S”. For the same molecule, the “antibiotic susceptibility S/I/R” value (host strain YMC16/01/R353) was “S”, the “susceptibility category (S/I/R)” value (host strain YMC16/01/R353) was “S” and the “antibiotic susceptibility S/I/R” value (host strain YMC16/01/R380) was “S”. The “susceptibility category (S/I/R)” value (host strain YMC16/01/R380) was “S”, the “antibiotic susceptibility S/I/R” value (host strain YMC16/01/R397) was “S” and the “susceptibility category (S/I/R)” value (host strain YMC16/01/R397) was “S”. The “antibiotic susceptibility S/I/R” value (host strain YMC16/01/R405) was “R”, the “susceptibility category (S/I/R)” value (host strain YMC16/01/R405) was “R” and the “susceptibility category (S/I/R)” value (host strain YMC16/03/R4461) was “I”. The “antibiotic susceptibility S/I/R” value (host strain YMC16/05/R2210) was “S”, the “susceptibility category (S/I/R)” value (host strain YMC16/05/R2210) was “S” and the “antibiotic susceptibility S/I/R” value (host strain YMC16/07/R2512) was “S”. For the same molecule, the “susceptibility category (S/I/R)” value (host strain YMC16/07/R2512) was “S”, the “antibiotic susceptibility S/I/R” value (host strain YMC16/09/R2471) was “S” and the “susceptibility category (S/I/R)” value (host strain YMC16/09/R2471) was “S”. The “antibiotic susceptibility S/I/R” value (host strain YMC16/10/R2537) was “S”, the “susceptibility category (S/I/R)” value (host strain YMC16/10/R2537) was “S” and the “antibiotic susceptibility S/I/R” value (host strain YMC16/12/B11422) was “S”. For the same molecule, the “susceptibility category (S/I/R)” value (host strain YMC16/12/B11422) was “S”, the “antibiotic susceptibility S/I/R” value (host strain YMC16/12/B11449) was “S” and the “susceptibility category (S/I/R)” value (host strain YMC16/12/B11449) was “S”. The “antibiotic susceptibility S/I/R” value (host strain YMC16/12/B13325) was “S”, the “susceptibility category (S/I/R)” value (host strain YMC16/12/B13325) was “S” and the “antibiotic susceptibility S/I/R” value (host strain YMC16/12/P503) was “S”. For the same molecule, the “susceptibility category (S/I/R)” value (host strain YMC16/12/P503) was “S”, the “susceptibility category (S/I/R)” value (host strain YMC16/12/R4637) was “I” and the “antibiotic susceptibility S/I/R” value (host strain YMC17/01/B8053) was “R”. For the same molecule, the “susceptibility category (S/I/R)” value (host strain YMC17/01/B8053) was “R”, the “antibiotic susceptibility S/I/R” value (host strain YMC17/01/B10087) was “S” and the “susceptibility category (S/I/R)” value (host strain YMC17/01/B10087) was “S”. For the same molecule, the “antibiotic susceptibility S/I/R” value (host strain YMC17/01/B12075) was “S”, the “susceptibility category (S/I/R)” value (host strain YMC17/01/B12075) was “S” and the “antibiotic susceptibility S/I/R” value (host strain YMC17/01/B13454) was “S”. The “susceptibility category (S/I/R)” value (host strain YMC17/01/B13454) was “S”, the “antibiotic susceptibility S/I/R” value (host strain YMC17/01/P518) was “S” and the “susceptibility category (S/I/R)” value (host strain YMC17/01/P518) was “S”. The “susceptibility category (S/I/R)” value (host strain YMC17/01/R2812) was “I”, the “antibiotic susceptibility S/I/R” value (host strain YMC17/02/B14) was “S” and the “susceptibility category (S/I/R)” value (host strain YMC17/02/B14) was “S”. The “antibiotic susceptibility S/I/R” value (host strain YMC17/02/B87) was “S”, the “susceptibility category (S/I/R)” value (host strain YMC17/02/B87) was “S” and the “antibiotic susceptibility S/I/R” value (host strain YMC17/02/B721) was “S”. The “susceptibility category (S/I/R)” value (host strain YMC17/02/B721) was “S”, the “antibiotic susceptibility S/I/R” value (host strain YMC17/02/B4039) was “S” and the “susceptibility category (S/I/R)” value (host strain YMC17/02/B4039) was “S”. For the same molecule, the “antibiotic susceptibility S/I/R” value (host strain YMC17/02/B4520) was “S”, the “susceptibility category (S/I/R)” value (host strain YMC17/02/B4520) was “S” and the “antibiotic susceptibility S/I/R” value (host strain YMC17/02/B4864) was “S”. For the same molecule, the “susceptibility category (S/I/R)” value (host strain YMC17/02/B4864) was “S”, the “antibiotic susceptibility S/I/R” value (host strain YMC17/02/B8414) was “R” and the “susceptibility category (S/I/R)” value (host strain YMC17/02/B8414) was “R”. The “antibiotic susceptibility S/I/R” value (host strain YMC17/02/P523) was “S”, the “susceptibility category (S/I/R)” value (host strain YMC17/02/P523) was “S” and the “susceptibility category (S/I/R)” value (host strain YMC17/02/R541) was “I”. For the same molecule, the “antibiotic susceptibility S/I/R” value (host strain YMC17/02/R2392) was “S”, the “susceptibility category (S/I/R)” value (host strain YMC17/02/R2392) was “S” and the “antibiotic susceptibility S/I/R” value (host strain YMC17/03/B4730) was “R”. The “susceptibility category (S/I/R)” value (host strain YMC17/03/B4730) was “R”, the “antibiotic susceptibility S/I/R” value (host strain YMC17/03/B5000) was “S” and the “susceptibility category (S/I/R)” value (host strain YMC17/03/B5000) was “S”. The “antibiotic susceptibility S/I/R” value (host strain YMC17/03/P971) was “R”, the “susceptibility category (S/I/R)” value (host strain YMC17/03/P971) was “R” and the “antibiotic susceptibility S/I/R” value (host strain YMC17/03/R348) was “S”. The “susceptibility category (S/I/R)” value (host strain YMC17/03/R348) was “S”, the “susceptibility category (S/I/R)” value (host strain YMC17/03/R585) was “I” and the “antibiotic susceptibility S/I/R” value (host strain YMC17/03/R1888) was “R”. The “susceptibility category (S/I/R)” value (host strain YMC17/03/R1888) was “R”, the “antibiotic susceptibility S/I/R” value (host strain YMC17/03/R3279) was “S” and the “susceptibility category (S/I/R)” value (host strain YMC17/03/R3279) was “S”. The “antibiotic susceptibility S/I/R” value (host strain YMC17/03/R4077) was “R”, the “susceptibility category (S/I/R)” value (host strain YMC17/03/R4077) was “R” and the “antibiotic susceptibility S/I/R” value (host strain YMC17/03/R4607) was “S”. The “susceptibility category (S/I/R)” value (host strain YMC17/03/R4607) was “S”, the “antibiotic susceptibility S/I/R” value (host strain YMC17/04/R488) was “S” and the “susceptibility category (S/I/R)” value (host strain YMC17/04/R488) was “S”. The “antibiotic susceptibility S/I/R” value (host strain YMC17/04/R640) was “R”, the “susceptibility category (S/I/R)” value (host strain YMC17/04/R640) was “R” and the “susceptibility category (S/I/R)” value (host strain YMC/17/05/R1095) was “I”.
